ChEMBL document CHEMBL3046457, “Chemical characterization of the aphid antifeedant extracts from Dittrichia viscosa and Ferula communis” (2012)

Columns and labels:
Type in all cases: functional
[1] = system: Myzus persicae; assay: Insecticidal activity against Myzus persicae (green peach aphid) in compound treated leaf disk assessed as settling inhibition on leaf disk at 10 ug/cm'2 relative to control
[2] = system: Myzus persicae; assay: Insecticidal activity against Myzus persicae (green peach aphid) in compound treated leaf disk assessed as settled on leaf disk at 10 ug/cm'2 relative to control (reference value: 39 +/- 6 to 98 +/- 1%)
[3] = system: Myzus persicae; assay: Insecticidal activity against Myzus persicae (green peach aphid) in compound treated leaf disk assessed as settling inhibition on leaf disk at 100 ug/cm'2 relative to control
[4] = system: Myzus persicae; assay: Insecticidal activity against Myzus persicae (green peach aphid) in compound treated leaf disk assessed as settled on leaf disk at 50 ug/cm'2 relative to control (reference value: 39 +/- 6 to 98 +/- 1%)
[5] = system: Myzus persicae; assay: Insecticidal activity against Myzus persicae (green peach aphid) in compound treated leaf disk assessed as settled on leaf disk at 100 ug/cm'2 relative to control (reference value: 39 +/- 6 to 98 +/- 1%)
[6] = system: Myzus persicae; assay: Insecticidal activity against Myzus persicae (green peach aphid) in compound treated leaf disk assessed as settling inhibition on leaf disk at 50 ug/cm'2 relative to control
[7] = system: Myzus persicae; assay: Insecticidal activity against Myzus persicae (green peach aphid) in compound treated leaf disk assessed as settled on leaf disk

SMILES | inhibition (INH) [1] [%] | inhibition (INH) [2] [%] | inhibition (INH) [3] [%] | inhibition (INH) [4] [%] | inhibition (INH) [5] [%] | inhibition (INH) [6] [%] | ED50 [7] [microg/cm2]
C=C1C(=O)O[C@H]2CC(=C)[C@H]3CC[C@@](C)(O)[C@@H]3C[C@H]12 [INUVISCOLIDE] | 38 | 43 | 56 | 39 | 31 | 50 | –
C=C1C(=O)O[C@@H]2C[C@H](C)C(CCC(C)=O)=CC[C@H]12 [TOMENTOSIN] | 19 | 61 | 98 | 35 | 2 | 48 | 31.9
CC(C)=CCC/C(C)=C/CC/C(C)=C/Cc1c(O)c2ccccc2oc1=O | 63 | 28 | 62 | 20 | 26 | 71 | –
